In patent publication US11911356B2, “Regulation of mutant TERT by BRAF V600E/map kinase pathway through FOS/GABP in human cancer” (THE JOHNS HOPKINS UNIVERSITY, priority 2017, dated 2024):

Key:
FOS phosphorylation = experiment: Western blotting of phosphorylated FOS in K1 and A375 cells; format: cell-based, human; conditions: 0.5 uM PLX4032 for 0, 1 and 24 hours
Description: FIG. 6A-6J. BRAF V600E promoted FOS binding to GABPB by upregulating FOS phosphorylation. (FIG. 6A) Western blotting analyses for phosphorylated-FOS (p-FOS), total FOS (t-FOS), BRAF, and beta-actin in K1 and A375 cells with or without stable BRAF knockdown. (FIG. 6B) Western blotting analyses of p-FOS, t-FOS, p-ERK, and beta-actin in K1 and A375 cells treated with 0.5 uM PLX4032 for 0, 1, and 24 hours. (FIG. 6C-6E) Effects of FOS phosphorylation on GABPB and TERT activation. (FIG. 6C) KAT18 cells were serum-starved for 24 hours and transiently transfected with FOS wild-type (FOS-wt) or mutant (FOS-mut) bearing none of the potential ERK-targeted phosphorylation sites, followed by Western blotting analysis for TERT, GABPB, p-FOS, t-FOS, and beta-actin. (FIG. 6D) KAT18 cells were transfected with FOS-wt or FOS-mut along with GABPB 5′-UTR luciferase reporter and Renilla luciferase (pRL-TK) plasmids in the absence of serum for 24 hours, and the luciferase activities were then measured. […]
(§1) Cells were lysed in the RIPA buffer (#sc-24948; Santa Cruz Biotechnology, Santa Cruz, CA) with protease inhibitor cocktail (#P8340; Sigma-Aldrich) and phosphatase inhibitor cocktail (#P0044; Sigma-Aldrich) and Western blotting analysis was performed as we previously described^54. […] Signals were detected by SuperSignal™ West Pico PLUS Chemiluminescent Substrate (#34579; Thermo Fisher Scientific). […]

MYC expression = experiment: Western blotting of MYC in BRAF V600E cancer cell lines; format: cell-based, human; conditions: four cancer cell lines harboring BRAF V600E; 0.5 uM PLX4032, 24 hours
Description: FIG. 3A-3C. MYC regulated TERT expression in a TERT promoter mutation-independent manner. (FIG. 3A) The four indicated cancer cell lines harboring BRAF V600E mutation were treated with 0.5 uM PLX4032 and/or 10 nM MYC-specific siRNA (siMYC) for 24 hours, which were then subjected to Western blotting (upper panel) and qRT-PCR (lower panel). The relative TERT mRNA expression was normalized to the control group. (FIG. 3B, 3C) Parental and BRAF V600E knock-in SW48 cells were treated with control siRNA (siControl) or MYC-specific siRNA (siMYC, 10 nM) for 48 h, followed by Western blotting (FIG. 3B) and luciferase reporter assays (FIG. 3C). *P<0.05, **P<0.01, ***P<0.001, by 2-tailed Student's t test. n.s., not significant. All the values represent the average standard deviation (SD) of triplicate samples from a typical experiment. Similar results were obtained in two additional independent experiments.
as §1

## CCCS(=O)(=O)Nc1ccc(F)c(C(=O)c2c[nH]c3ncc(-c4ccc(Cl)cc4)cc23)c1F [PLX4032]
FOS phosphorylation
  phosphorylation of FOS: significantly decreased the phosphorylation of FOS
MYC expression
  MYC expression: suppressed MYC expression
